Common to all, as to type: cell-based
One assay deals with 855 line. In words: WST cytotoxicity assay, 855 line. The settings on record: read-out: Cancer cell cytotoxicity IC50. On the procedure: (§1) The cytotoxic effect of MX 69 and MX69 analogs on cancer cells was determined using the water-soluble tetrazolium salt (WST) assay. Briefly, cells cultured in 96-well microtiter plates were treated with different concentrations of AQ-101 for a 20-h period. WST (25 μg/well) was then added and incubation continued for an additional 4 h, after which optical density (OD) was read with a microplate reader (test wavelength of 450 nm; reference wavelength of 620 nm).

Another assay relates to 697 cell line. In words: WST cytotoxicity assay, 697 cell line. The settings on record: read-out: Cancer cell cytotoxicity IC50. On the procedure:
as §1

Another assay relates to NB-1643. In words: WST cytotoxicity assay, NB-1643. The settings on record: Homo sapiens; NB-1643 line; read-out: Cancer cell cytotoxicity IC50. On the procedure: This study used two ALL cell lines (EU-1 and EU-3) and three NB cell lines (NB-1643, SHEP1 and LA1-55N). All 5 cancer cell lines were established from pediatric ALL or NB patients and were well-characterized for their expression of MDM2 and p53-status, as reported previously. All cell lines were grown in standard culture medium (RPMI 1640 containing 10% FBS, 2 mmol/L L-glutamine, 50 U penicillin and 50 μg/mL streptomycin) at 37° C. in a humidified atmosphere containing 5% CO2.
as §1

In the next assay the test system is p53. The assay can be described thus: p53 induction / expression (Western blot). The settings on record: words or +/− grades, key not given. On the procedure:
Cells were lysed in a buffer composed of 50 mM Tris, pH 7.6, 150 mM NaCl, 1% Nonidet P-40, 10 mM sodium phosphate, 10 mM NaF, 1 mM sodium orthovanadate, 2 mM phenylmethylsulfonyl fluoride (PMSF), […], 10 μg/mL leupeptin and 10 μg/mL pepstatin. After centrifugation, the clarified cell lysate was separated from the pellet of cell debris, and then incubated with 15 μL Protein G/Protein A-agarose and 1 μg of antibodies, overnight at 4° C. For the Western blot, the resulting cell lysates or immunoprecipitates were resolved by SDS-PAGE. They were then transferred to a nitrocellulose filter and probed with the specific antibodies as listed in the supplemental Materials section. Finally, proteins were visualized with a chemiluminescent detection system.
(In general: A western blot detects proteins with antibodies after separation by electrophoresis.)

For a further assay, the system named is MYCN. The assay can be described thus: MYCN inhibition. The settings on record: MDM2 reduction.

The term IC50 denotes the concentration that inhibits the measured activity by half.

`Cc1ccc(NS(=O)(=O)c2ccc3c(c2)C2NCC[C@H]2C(C2CCCCC2)N3)cc1C` (some centres unmarked) [Compound 69L61]: the IC50 with 855 line stood at 2430 nM; in the assay with 697 cell line it was 3.6 µM; in the assay with NB-1643, 1600 nM. Moreover, the p53 induction entry with p53 is “No p53”. For the same compound, the MYCN inhibition result in the assay on MYCN is recorded as “inhibition”.

The record behind these values is patent US20240059658A1 (Emory University, priority 2019, published 2024).
